Measured values as given in BigSolDB 2.1.

Details: in tetrachloromethane

C[C@@H]1CC[C@@]2(OC1)O[C@H]1C[C@H]3[C@@H]4CC=C5C[C@@H](O)CC[C@]5(C)[C@H]4CC[C@]3(C)[C@H]1[C@@H]2C
Details | solubility (mole fraction)
291.95 K | 0.00286
297.45 K | 0.00334
299.85 K | 0.00381
302.75 K | 0.00429
306.95 K | 0.00487
308.95 K | 0.00536
311.35 K | 0.00578
313.65 K | 0.0063
316.15 K | 0.00676
317.95 K | 0.00718
318.95 K | 0.00763
320.55 K | 0.00804
322.35 K | 0.00857
323.65 K | 0.00905
325.15 K | 0.0095
326.35 K | 0.0099
327.85 K | 0.0105
328.95 K | 0.0109
